Measured values taken from patent publication US12077503B2, “Substituted cyclic amides and their use as herbicides” (FMC CORPORATION, priority 2015, dated 2024).

Tests used:
Format in all cases: in vivo
Kochia (Kochia scoparia) [1] = test: Test A preemergence; conditions: Bassia scoparia, pre-emergence, 240 h, 500 g ai/ha, preemergence; visual injury rating about 10 d after treatment, 0 to 100 scale (0 no effect, 100 complete control); read-out: Kochia plant response rating
Outline: (§1)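 Visual injury scores from 0, no effect, to 100, complete control, were assigned versus untreated controls roughly 10 d after treatment in the greenhouse. Test chemicals, formulated with surfactant in a non-phytotoxic solvent, were applied to planted seeds as a preemergence soil spray or postemergence to one- to two-leaf plants 2 to 10 cm tall, in loam–sand soil.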

[2] = test system: Galium (catchweed bedstraw, Galium aparine); test: Test A postemergence; conditions: Galium, post-emergence, 240 h, 125 g ai/ha, Postemergence; visual injury after approximately 10 d; 0 to 100 scale where 0 is no effect and 100 is complete control; read-out: Plant response rating, Galium
Outline: as §1

Kochia (Kochia scoparia) [3] = test: Test A postemergence; conditions: Bassia scoparia, post-emergence, 240 h, 125 g ai/ha, Postemergence; visual injury after approximately 10 d; 0 to 100 scale where 0 is no effect and 100 is complete control; read-out: Plant response rating, Kochia
Outline: as §1

[4] = test system: barnyardgrass (Echinochloa crus-galli); test: Test A postemergence; conditions: Echinochloa crus-galli, post-emergence, 240 h, 125 g ai/ha, Postemergence; visual injury after approximately 10 d; 0 to 100 scale where 0 is no effect and 100 is complete control; read-out: Plant response rating, Barnyardgrass
Outline: as §1

[5] = test system: blackgrass (Alopecurus myosuroides); test: Test A postemergence; conditions: Alopecurus myosuroides, post-emergence, 240 h, 125 g ai/ha, Postemergence; visual injury after approximately 10 d; 0 to 100 scale where 0 is no effect and 100 is complete control; read-out: Plant response rating, Blackgrass
Outline: as §1

corn (Zea mays) = test: Test A postemergence; conditions: Zea mays, post-emergence, 240 h, 125 g ai/ha, Postemergence; visual injury after approximately 10 d; 0 to 100 scale where 0 is no effect and 100 is complete control
Outline: as §1

[6] = test system: giant foxtail (Setaria faberii); test: Test A postemergence; conditions: Setaria faberi, post-emergence, 240 h, 125 g ai/ha, Postemergence; visual injury after approximately 10 d; 0 to 100 scale where 0 is no effect and 100 is complete control; read-out: Plant response rating, Foxtail, Giant
Outline: as §1

[7] = test system: pigweed (Amaranthus retroflexus); test: Test A postemergence; conditions: Amaranthus retroflexus, post-emergence, 240 h, 125 g ai/ha, Postemergence; visual injury after approximately 10 d; 0 to 100 scale where 0 is no effect and 100 is complete control; read-out: Plant response rating, Pigweed
Outline: as §1

[8] = test system: ragweed (common ragweed, Ambrosia elatior); test: Test A postemergence; conditions: Ambrosia artemisiifolia, post-emergence, 240 h, 125 g ai/ha, Postemergence; visual injury after approximately 10 d; 0 to 100 scale where 0 is no effect and 100 is complete control; read-out: Plant response rating, Ragweed
Outline: as §1

[9] = test system: ryegrass, Italian (Italian ryegrass, Lolium multiflorum); test: Test A postemergence; conditions: Lolium multiflorum, post-emergence, 240 h, 125 g ai/ha, Postemergence; visual injury after approximately 10 d; 0 to 100 scale where 0 is no effect and 100 is complete control; read-out: Plant response rating, Ryegrass, Italian
Outline: as §1

[10] = test system: wheat (Triticum aestivum); test: Test A postemergence; conditions: Triticum aestivum, post-emergence, 240 h, 125 g ai/ha, Postemergence; visual injury after approximately 10 d; 0 to 100 scale where 0 is no effect and 100 is complete control; read-out: Plant response rating, Wheat
Outline: as §1

[11] = test system: barnyardgrass (Echinochloa crus-galli); test: Test B flooded paddy test; conditions: Echinochloa crus-galli, Flood, 250 g ai/ha; scale of 0 to 100 where 0 is no effect and 100 is complete control; read-out: Barnyardgrass plant response rating
Outline: (§2)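 Compound goes directly into floodwater once pots are flooded 3 cm above soil, targeting plants at two leaves; the water depth is then held for the test duration. Plants sit 13–15 d in a greenhouse and are rated visually, 100 denoting complete control.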

[12] = test system: ducksalad (Heteranthera limosa); test: Test B flooded paddy test; conditions: Heteranthera limosa, Flood, 250 g ai/ha; scale of 0 to 100 where 0 is no effect and 100 is complete control; read-out: Ducksalad plant response rating
Outline: as §2

rice (Oryra sativa) = test: Test B flooded paddy test; conditions: Oryza sativa, Flood, 250 g ai/ha; scale of 0 to 100 where 0 is no effect and 100 is complete control; read-out: Rice plant response rating
Outline: as §2

[13] = test system: sedge, umbrella (small-flower umbrella sedge, Cyperus difformis); test: Test B flooded paddy test; conditions: Cyperus difformis, 250 g ai/ha, Flood; 0 to 100 scale where 0 is no effect and 100 is complete control; read-out: Sedge, Umbrella plant response rating
Outline: as §2

Question: For `CN1C[C@H](c2cc(F)cc(C(F)(F)F)c2)[C@@H](C(=O)Nc2cccc(Cl)c2F)C1=O` [Compound 995], which pest or weed control at 500 g/ha (Kochia (Kochia scoparia) [1]) is on record?
Answer: 0%

Question: What about the pest or weed control at 125 g/ha [2] of the same molecule?
Answer: 40%

Question: And the pest or weed control at 125 g/ha (Kochia (Kochia scoparia) [3])?
Answer: 0%

Question: And the pest or weed control at 125 g/ha [4]?
Answer: 60%

Question: And the pest or weed control at 125 g/ha [5]?
Answer: 50%

Question: And the Corn plant response rating (crop injury, 0 = no effect, 100 = complete kill) at 125 g/ha (corn (Zea mays))?
Answer: 30%

Question: And the pest or weed control at 125 g/ha [6]?
Answer: 80%

Question: What about the pest or weed control at 125 g/ha [7] of the same molecule?
Answer: 0%

Question: What about the pest or weed control at 125 g/ha [8] of the same molecule?
Answer: 0%

Question: What about the pest or weed control at 125 g/ha [9] of the same molecule?
Answer: 30%

Question: And the plant injury at 125 g/ha [10]?
Answer: 20%

Question: What about the pest or weed control at 250 g/ha [11] of the same molecule?
Answer: 25%

Question: And the pest or weed control at 250 g/ha [12]?
Answer: 70%

Question: What about the pest or weed control at 250 g/ha (rice (Oryra sativa)) of the same molecule?
Answer: 0%

Question: What about the pest or weed control at 250 g/ha [13] of the same molecule?
Answer: 30%
